Assay results from patent US20230077104A1, “L-SEPIAPTERIN AND METHODS OF USE FOR TREATING DISEASES AND DISORDERS” (THE UNITED STATES GOVERNMENT AS REPRESENTED BY THE …, priority 2020, published 2023).

What was measured:
HRGECs / neutrophils [1] = test: Neutrophil adhesion to SLE serum-treated HRGECs, by dose of the patients' medication; format: cell-based, human; settings: serum of SLE patients on differing doses
Method: HRGECs were cultured in 48 well fibronectin-coated plates at 80 000 cells per well in complete growth media until confluent. HRGECs were washed, serum starved for 1 hour in ECM supplemented with 0.5% FBS, washed again. Treatments consisting of ECM only, 2.5% serum (lupus or control) in ECM or 100 ng/mL TNF-alpha (Thermo Fisher Scientific) (positive control) in ECM were added to the HRGECs, and cells underwent incubation for 3 hours at 37° C. HRGECs were then washed three times with RPMI-1640 (without phenol red); 6×10^5 Calcein AM-labelled neutrophils were added to each well of the treated HRGECs. Cells were incubated for 20 min at 37° C. and washed five times with PBS (without Ca^2+/Mg^2+). Fluorescence intensity was quantified before the first wash and after the fifth wash to determine percent cell adherence, with all values then normalized to untreated controls. Fluorescence intensity was measured from the top of the plate at 485 nm excitation, 520 nm emission using a fluorescence microplate reader (Biotek HT Synergy).

HRGECs / neutrophils [2] = test: Neutrophil migration to conditioned media of SLE serum-treated HRGECs, by dose of the patients' medication; format: cell-based, human; settings: serum of SLE patients on differing doses
Method: HRGECs were plated at 4×10^4 cells per well of a 48-well fibronectin-coated plate in complete growth media at 37° C. with 5% CO2. On confluence, cells were washed three times in ECM. Cells were then cultured with 10% serum (SLE or control) in ECM for 3 hours and then washed three times in ECM. Cells were serum starved overnight in ECM. The resulting conditioned media (CM) was then collected and passed through a 0.2 μm pore membrane to remove any cellular debris and frozen at −80° C. for later use.
Transwell membrane chambers with 3 μm pores from a 96-well Migration Plate (Corning, Corning, N.Y., USA) were equilibrated in RPMI for 1 hour at 37° C. Then RPMI was removed. CM or negative (CM from serum-free treatment)/positive (10^−7 M interleukin (IL)-8 (R&D Systems, Minneapolis, Minn., USA)) controls were added to the 96-well black-walled receiver wells (Corning); 1.5×10^5 neutrophils in ECM were then added to the upper chamber of each insert and incubated for 1 hour to allow for neutrophil migration toward the conditioned medium. Cells that migrated through the membrane into the CM were then labelled with Calcein AM and incubated for 1 hour at 37° C. as described above. Fluorescence intensity was then measured from the bottom of the plate at 485 nm excitation, 520 nm emission using a fluorescence microplate reader (Biotek HT Synergy). A standard curve of Calcein AM-labelled neutrophils (using 1.5×10^5, 1.0×10^5, 5.0×10^4, 2.5×10^4, 1.25×10^4, 0.625×10^4 and 0 neutrophils) was created and fluorescence intensity was quantified on the microplate reader. The linear equation was then calculated and fluorescence intensity of samples could then be input into the linear equation to determine neutrophil cell number. The fluorescence intensity of migrated neutrophils in the lower chamber was measured as described (Jones Buie et al., Lupus Sci Med 2019; 6:e000294). All values were normalized to untreated controls.

TLR 7/9 = settings: cited from earlier work
p38α and p38β2 = settings: cited from earlier work
HUVECs / neutrophils = test: Neutrophil adhesion assay on HUVECs; format: cell-based, human
Method: HUVECs were plated at 5.0×10^4 cells/mL in a 24-well plate (Costar) and allowed to adhere overnight. HUVECs were serum starved for 3 hours in phenol-red free 0.2% FBS EBM media (Lonza) prior to activation with 10% sera for 4 hours. Tumor necrosis factor-α (100 ng/mL) was used as the positive control. Neutrophils isolated from healthy human blood as outlined previously were labelled with Calcein AM (Life Technologies) at 5×10^5 cells/mL. Neutrophils were washed gently four times in warm serum-free EBM culture media prior to co-culturing with HUVECs for 60 min after which non-adherent cells were removed by repeated gentle washing (four times) with EBM culture media. Fluorescence intensity was measured at 520 nM with a FLUOStar Omega microplate reader (Cary, N.C., USA), and images were captured using confocal microscopy. Data are reported as ratios of the number of neutrophils to the number of endothelial cells as averages from three different visual fields.

[3] = tested on: human renal glomerular endothelial cells (HRGEC); test: NO production (DAF-FM with urate) by HRGEC treated with LN serum; format: cell-based; settings: urate added, 5 μM L-Sepiapterin, 25 μM VAS2870
Method: The inflammatory phenotype of HUVECs differs from microvascular endothelial cells and may not reflect mechanisms in glomerular endothelial cells. To confirm the uncoupling effects lead to functional changes in uncoupling and NO production by EC treated with LN serum in HRGEC, HRGEC as in FIG. 10 was treated with LN serum in a black walled 96-well plate. […] NO production was quantified using DAF-FM fluorescence with urate added to prevent ONOO— fluorescence. […] While not wishing to be bound to any particular theory, one possible explanation for this finding is that uncoupled NOS is a significant source of ROS in LN (Njoku, C. J. et al., 2005, J. Investig. Med., 53:347-52).
HRGECs are plated at 3×10^4 cells per well in a 96-well black-walled plate and cultured in complete growth media at 37° C. in a humidified atmosphere with 5% CO2. Upon confluence, complete growth medium is removed, and cells washed in ECM-prf (phenol red free). Cells are incubated with 2 μM DAF-FM Diacetate for 60 minutes at 37° C., then cells washed in ECM-prf. […] 0.6 mM DPTA NONOate (Abcam) is a positive control, while L-NAME (100 μM) is a negative control. […] Plates are incubated for 30 minutes at 37° C. and read at 485/528 excitation/emission on a microplate reader (BioTek HT Synergy). […]

[4] = tested on: humans with phenylketonuria and tetrahydrobiopterin deficiencies; settings: humans with phenylketonuria and tetrahydrobiopterin deficiencies (Smith 2019); cited from earlier work
[5] = tested on: C57B6/J mice with angiotensin II minipump; test: Tail cuff blood pressure response to acetylcholine, angiotensin II model of hypertension; format: in vivo; settings: 10 mg/kg/d by gavage vs vehicle
Method: To determine the effect of sepiapterin in a mouse model of hypertension, C57B6/J mice were implanted with an angiotensin II minipump for 2 weeks to induce hypertension. The animals were then treated with either sepiapterin 10 mg/kg/d by gavage or vehicle. A tail cuff measure of blood pressure was taken followed by injection of acetylcholine and a second tail cuff measure of blood pressure.

[6] = tested on: BALB/c mice with Angiotensin II minipumps; test: Systolic blood pressure in Angiotensin II minipump hypertension; format: in vivo
Method: Hypertension was created in some BALB/c mice with Angiotensin II minipumps. Mice were treated half with CSNA-001 (L-sep) 8 days after the pumps were placed and baseline SBP checked. The decrease in systolic BP was significant in the treated mice but not the untreated (FIG. 21 and FIG. 22).

[7] = tested on: human umbilical vein endothelial cells (HUVECs); test: Measurement of nitric oxide production (DAF-FM fluorescence, flow cytometry) in serum-cultured HUVECs; format: cell-based; settings: for DAF-FM MFI, a marker of NO production: L-sep 5 μM 6 hours
Method: Primary human umbilical vein endothelial cells from pooled donors were purchased from Lonza (Walkersville, Md., USA) and cultured according to the manufacturer's instructions in 5% CO2 at 37° C. in humidified air. Cells were cultured in endothelial cell basal medium-2 (EBM-2) supplemented with EBM-2 SingleQuot (Lonza), pH 7.6-8.0. Media was changed every other day until cells were 70%-80% confluent. HUVECs were sub-cultured using TryPLE Express, pH 8.0 (ThermoFisher Scientific, Waltham, Mass., USA). Cell growth was limited to 12 population doublings, and all experiments were carried out using cells between passages 3-5. For serum experiments, cells were cultured with 20%-50% serum for 6 or 24 hours prior to further analysis.
For real-time detection of NO production in HUVECs, 1.2×10^5 cells were seeded in a 12-well tissue culture plate. Following adherence, cells were serum starved for 6 hours in endothelial basal media (EBM) containing 0.2% fetal bovine serum (FBS). Cells were stimulated with either 50% healthy or SLE sera±L-sep (5 μM; 6 hours), the eNOS-specific inhibitor, Nω-Nitro-L-arginine (L-NNA, 10 μM; 30 min pre-incubation (Tocris; Bristol, UK)) or the NO donor 3,3′-diamino-4′-methoxyflavone (DD1, 10 μM, Tocris). Following stimulation, cells were washed twice with phosphate buffered saline (PBS) and loaded with 1 μM DAF-FM diacetate (4-amino-5-methylamino-2′,7′-difluorofluorescein diacetate, 1 μM) (ThermoFisher Scientific) in phenol red-free EBM for 30-45 min. […] A population of 2000-10 000 cells were gated to remove doublets and controls and analyzed based on their fluorescence intensities using a FACS Calibur flow cytometer (Becton Dickenson, San Diego, USA). The mean fluorescence intensity (MFI) was normalized to respective populations in unstimulated cells. In order to discriminate between NO and other gaseous molecules previously shown to augment DAF-FM fluorescence, a urate assay was performed to optimize the assay (data not shown).

intracellular BH4 = settings: compared with exogenous BH4 (Crabtree 2011); cited from earlier work
p38α = p38α (Homo sapiens, UniProt Q16539); settings: cited from earlier work
iNOS = iNOS (Mus musculus, UniProt P29477); settings: cited from earlier work
iNOS, sequence (P29477 whole entry): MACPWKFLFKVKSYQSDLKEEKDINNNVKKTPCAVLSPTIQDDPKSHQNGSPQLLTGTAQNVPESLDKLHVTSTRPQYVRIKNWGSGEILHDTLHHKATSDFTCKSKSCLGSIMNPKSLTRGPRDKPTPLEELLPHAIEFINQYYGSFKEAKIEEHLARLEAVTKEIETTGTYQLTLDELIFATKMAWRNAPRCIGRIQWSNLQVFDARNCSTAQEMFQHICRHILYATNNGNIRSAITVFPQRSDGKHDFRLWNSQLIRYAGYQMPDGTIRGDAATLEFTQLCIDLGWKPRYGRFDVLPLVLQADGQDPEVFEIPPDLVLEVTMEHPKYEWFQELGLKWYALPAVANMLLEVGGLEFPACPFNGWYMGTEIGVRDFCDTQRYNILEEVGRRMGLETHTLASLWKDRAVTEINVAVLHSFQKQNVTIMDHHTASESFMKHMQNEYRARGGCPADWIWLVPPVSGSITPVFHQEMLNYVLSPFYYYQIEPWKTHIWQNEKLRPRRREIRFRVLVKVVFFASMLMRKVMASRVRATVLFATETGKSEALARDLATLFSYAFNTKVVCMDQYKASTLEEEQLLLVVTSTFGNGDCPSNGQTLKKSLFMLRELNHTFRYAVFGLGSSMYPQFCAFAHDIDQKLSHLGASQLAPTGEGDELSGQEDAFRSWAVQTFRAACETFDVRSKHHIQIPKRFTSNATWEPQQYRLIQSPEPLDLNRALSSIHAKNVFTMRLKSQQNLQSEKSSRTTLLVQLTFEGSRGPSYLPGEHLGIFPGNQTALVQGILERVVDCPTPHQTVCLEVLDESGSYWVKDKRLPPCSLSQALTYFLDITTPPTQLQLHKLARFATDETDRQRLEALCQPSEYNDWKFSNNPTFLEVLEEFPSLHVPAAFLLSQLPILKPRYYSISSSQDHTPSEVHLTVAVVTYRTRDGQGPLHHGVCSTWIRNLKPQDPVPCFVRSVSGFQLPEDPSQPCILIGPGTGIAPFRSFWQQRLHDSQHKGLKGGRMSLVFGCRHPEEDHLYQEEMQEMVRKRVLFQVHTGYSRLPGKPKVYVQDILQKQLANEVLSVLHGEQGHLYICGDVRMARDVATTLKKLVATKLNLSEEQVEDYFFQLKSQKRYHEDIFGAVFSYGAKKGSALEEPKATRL

p38α, sequence (Q16539 whole entry): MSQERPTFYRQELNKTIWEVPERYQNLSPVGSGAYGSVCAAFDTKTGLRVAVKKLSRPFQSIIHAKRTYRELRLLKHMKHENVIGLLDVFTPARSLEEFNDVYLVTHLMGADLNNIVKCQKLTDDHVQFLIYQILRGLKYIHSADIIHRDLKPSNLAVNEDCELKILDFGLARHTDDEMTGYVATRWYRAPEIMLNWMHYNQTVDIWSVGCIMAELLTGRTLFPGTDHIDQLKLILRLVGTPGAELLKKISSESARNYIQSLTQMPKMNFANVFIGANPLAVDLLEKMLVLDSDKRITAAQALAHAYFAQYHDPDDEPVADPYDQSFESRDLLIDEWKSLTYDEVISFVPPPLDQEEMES

SMILES: COc1c(C)c2c(c(O)c1C/C=C(\C)CCC(=O)OCCN1CCOCC1)C(=O)OC2 [CellCept, mycophenolate mofetil]
- neutrophil adhesion, dosing effects of medication (HRGECs / neutrophils [1]): No difference
- neutrophil migration, dosing effects of medication (HRGECs / neutrophils [2]): No difference

SMILES: CCN(CCO)CCCC(C)Nc1ccnc2cc(Cl)ccc12 (stereo not shown) [hydroxychloroquine]
- neutrophil adhesion, dosing effects of medication (HRGECs / neutrophils [1]): No difference
- IC50 (TLR 7/9): ~4 µM
- neutrophil migration, dosing effects of medication (HRGECs / neutrophils [2]): No difference

SMILES: Cc1ccccc1C(=O)c1ccc(Nc2ccc(Br)cc2N)cc1Cl [EO1428]
- IC50 (p38α and p38β2): 0.074 µM

SMILES: CC(O)C(=O)C1=Nc2c([nH]c(N)nc2=O)NC1 [L-sepiapterin, 2-amino-6-[-2-hydroxypropanoyl]-7,8-dihydro-1H-pteridin-4-one]
- neutrophil adhesion induced by SLE serum (HUVECs / neutrophils; SLE serum cultured HUVECs): did not reverse neutrophil adhesion
- neutrophil adhesion (HUVECs / neutrophils; cells cultured in EBM-2 media, p<0.05): reversed neutrophil adhesion
- NO production (DAF-FM fluorescence) [3]: increased more
- safety profile [4]: favorable
- endothelial function (difference in tail cuff pressure after acetylcholine) [5]: improves endothelial function
- decrease in systolic BP ([6]; treated mice, 20 mg/kg daily, Day 7 to Day 14, cuff pressure): significant
- mean blood pressure responses to acetyl choline ([6]; treated vs untreated mice): significant differences
- differences in reduction of systolic blood pressure ([6]; treated vs untreated mice, 20 mg/kg daily): about 8 mmHg
- DAF-FM MFI, a marker of NO production ([7]; SLE serum cultured HUVECs, 50% serum, vs SLE cultured cells without L-sepiapterin, p<0.01): significantly increased
- DAF-FM MFI, a marker of NO production ([7]; control serum cultured HUVECs): not observed
- ratio in MFI-fold change between SLE serum+L-sepiapterin and SLE serum ([7]; vs ratios in control and healthy serum culture conditions, p<0.001 and <0.01): significantly different
- intracellular BH4 levels (intracellular BH4): more effectively than exogenous BH4

SMILES: C[C@]12C=CC(=O)C=C1CC[C@@H]1[C@@H]2C(=O)C[C@@]2(C)[C@H]1CC[C@]2(O)C(=O)CO [Prednisone, prednisone]
- neutrophil adhesion, dosing effects of medication (HRGECs / neutrophils [1]): No difference
- neutrophil migration, dosing effects of medication (HRGECs / neutrophils [2]): No difference

SMILES: Cc1c(F)cc(C(=O)NC2CC2)cc1-c1c(F)cn2c(C(C)(C)C)nnc2c1F [AL 8697]
- IC50 (p38α): 0.006 µM

SMILES: CC(=N)NCCCC[C@H](N)C(=O)O [L-NIL]
- IC50 (iNOS): 3.3 µM

SMILES: c1ccc(Cn2nnc3c(Sc4nc5ccccc5o4)ncnc32)cc1 [VAS2870, reference compound]
- NO production (DAF-FM fluorescence) [3]: not effective

SMILES: NCCCC[C@H](N[C@@H](CCc1ccccc1)C(=O)O)C(=O)N1CCC[C@H]1C(=O)O [Lisinopril]
- neutrophil adhesion, dosing effects of medication (HRGECs / neutrophils [1]): No difference
- neutrophil migration, dosing effects of medication (HRGECs / neutrophils [2]): No difference
